Test results: ChEMBL document CHEMBL1141504, “An efficient route into synthetically challenging bridged achiral 1,2,4,5-tetraoxanes with antimalarial activity” (Bioorg Med Chem Lett, 2008)

Legend:
[1] = Partition coefficient, log P of the compound; type: physicochemical; settings: octanol/water
Plasmodium falciparum = assay: Antimalarial activity against Plasmodium falciparum 3D7; type: functional, organism-based

SMILES	logP [1]	IC50 (Plasmodium falciparum) [nM]
C=C1COOC2(CCC(Cc3ccc(C(=O)OC)cc3)CC2)OOC1	4.05	116
CCOC(=O)CC1CCC2(CC1)OOCCCOO2	2.2	118
O=C(CC1CCC2(CC1)OOCCCOO2)N1CCOCC1	1.16	689
C=C1COOC2(CCC(Cc3ccc(C(F)(F)F)cc3)CC2)OOC1	4.95	42.8
Fc1ccc(CC2CCC3(CC2)OOCCCOO3)cc1	4.01	68.2
FC(F)(F)c1ccc(CC2CCC3(CC2)OOCCCOO3)cc1	4.79	52.4
N#Cc1ccc(CC2CCC3(CC2)OOCCCOO3)cc1	3.46	99.7
c1ccc(CC2CCC3(CC2)OOCCCOO3)cc1	3.93	51.9
CS(=O)(=O)c1ccc(CC2CCC3(CC2)OOCCCOO3)cc1	2.65	
C=C1COOC2(CCC(Cc3ccc(F)cc3)CC2)OOC1	4.2	43.4
COC(=O)c1ccc(CC2CCC3(CC2)OOCCCOO3)cc1	3.75	93.5
CO[C@H]1O[C@@H]2O[C@@]3(C)CC[C@H]4[C@H](C)CC[C@@H]([C@H]1C)[C@@]24OO3 [ARTEMETHER]		3.2
C[C@@H]1CC[C@H]2[C@@H](C)C(=O)O[C@@H]3O[C@@]4(C)CC[C@@H]1[C@]32OO4 [ARTEMISININ]		9.2
